Test results reported in patent US9725465B2, “Biaryl acetamide compounds and methods of use thereof” (Ambit Biosciences Corporation, priority 2013, dated 2017).

Experiments:
FLT3 kinase = FLT3 kinase (Homo sapiens (Human), UniProt P36888); assay: Competition binding assay (Kd), FLT3
KIT kinase = KIT kinase (Homo sapiens (Human), UniProt P10721); assay: Competition binding assay (Kd), KIT
Procedure, shortened: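 Kd derived from eleven-point threefold serial dilutions of compound competing with bead-bound ligand for kinase; bound kinase eluted and measured by quantitative PCR. Kinase supplied either as a T7 phage fusion or expressed in HEK-293 cells with a DNA tag; DMSO served as control.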

Chain of KIT kinase (P10721 26-976): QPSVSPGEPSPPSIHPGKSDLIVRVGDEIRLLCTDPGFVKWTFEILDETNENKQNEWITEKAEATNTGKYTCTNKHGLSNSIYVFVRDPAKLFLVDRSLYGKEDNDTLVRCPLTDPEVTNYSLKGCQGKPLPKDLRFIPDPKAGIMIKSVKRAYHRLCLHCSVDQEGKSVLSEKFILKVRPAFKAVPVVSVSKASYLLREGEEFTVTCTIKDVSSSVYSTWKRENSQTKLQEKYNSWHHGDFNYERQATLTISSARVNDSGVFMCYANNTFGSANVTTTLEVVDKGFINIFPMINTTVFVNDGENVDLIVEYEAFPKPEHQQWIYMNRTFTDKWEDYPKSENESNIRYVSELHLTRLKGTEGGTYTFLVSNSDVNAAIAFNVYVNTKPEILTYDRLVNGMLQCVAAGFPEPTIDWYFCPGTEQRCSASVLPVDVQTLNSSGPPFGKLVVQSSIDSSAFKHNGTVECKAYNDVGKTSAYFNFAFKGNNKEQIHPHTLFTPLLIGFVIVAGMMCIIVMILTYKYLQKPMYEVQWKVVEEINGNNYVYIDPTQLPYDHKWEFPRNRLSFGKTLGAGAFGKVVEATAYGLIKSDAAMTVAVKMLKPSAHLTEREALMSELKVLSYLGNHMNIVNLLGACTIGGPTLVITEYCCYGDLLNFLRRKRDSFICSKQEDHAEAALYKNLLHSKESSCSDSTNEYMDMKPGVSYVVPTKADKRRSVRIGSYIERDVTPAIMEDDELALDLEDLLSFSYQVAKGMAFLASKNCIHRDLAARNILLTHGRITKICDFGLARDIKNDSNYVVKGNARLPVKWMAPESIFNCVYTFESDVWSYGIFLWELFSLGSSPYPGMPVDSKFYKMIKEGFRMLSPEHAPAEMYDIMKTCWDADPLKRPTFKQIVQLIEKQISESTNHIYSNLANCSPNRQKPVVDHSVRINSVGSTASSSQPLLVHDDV
Chain of FLT3 kinase (P36888 27-993): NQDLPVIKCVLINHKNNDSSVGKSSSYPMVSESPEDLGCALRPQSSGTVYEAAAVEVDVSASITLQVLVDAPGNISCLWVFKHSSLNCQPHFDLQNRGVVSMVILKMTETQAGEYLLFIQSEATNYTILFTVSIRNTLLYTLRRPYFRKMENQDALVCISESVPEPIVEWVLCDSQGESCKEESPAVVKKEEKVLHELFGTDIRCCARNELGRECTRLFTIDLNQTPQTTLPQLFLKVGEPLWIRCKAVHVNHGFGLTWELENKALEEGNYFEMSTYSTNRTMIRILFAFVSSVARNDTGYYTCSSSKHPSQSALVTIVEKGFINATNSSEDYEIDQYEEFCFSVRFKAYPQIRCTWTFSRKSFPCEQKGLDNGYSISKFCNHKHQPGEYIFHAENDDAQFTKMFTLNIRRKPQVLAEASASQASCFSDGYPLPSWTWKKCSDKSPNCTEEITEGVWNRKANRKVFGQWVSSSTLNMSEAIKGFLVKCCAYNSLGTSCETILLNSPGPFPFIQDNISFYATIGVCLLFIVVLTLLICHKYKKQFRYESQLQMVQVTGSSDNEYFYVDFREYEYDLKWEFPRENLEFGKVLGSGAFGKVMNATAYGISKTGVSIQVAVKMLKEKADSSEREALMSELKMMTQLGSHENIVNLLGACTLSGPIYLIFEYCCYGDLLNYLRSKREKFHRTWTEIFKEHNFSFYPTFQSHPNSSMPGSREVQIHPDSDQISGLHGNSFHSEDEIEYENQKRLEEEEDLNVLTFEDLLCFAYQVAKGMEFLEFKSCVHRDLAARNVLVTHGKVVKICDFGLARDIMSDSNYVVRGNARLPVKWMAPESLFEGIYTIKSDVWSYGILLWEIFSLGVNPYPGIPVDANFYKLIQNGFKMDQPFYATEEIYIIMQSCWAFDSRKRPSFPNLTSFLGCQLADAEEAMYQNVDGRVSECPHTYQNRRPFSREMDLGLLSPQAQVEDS

Kd (FLT3 kinase; competition binding assay) | Kd (KIT kinase; competition binding assay) | Kd (FLT3 kinase; competition binding) | Kd (KIT kinase; competition binding) | SMILES
< 5 nM | < 5 nM |  |  | COc1cc2ncc(-c3ccc(CC(=O)Nc4cc(C(C)(C)C(F)(F)F)nn4C)c(F)c3)nc2cc1OC [Example 181, 2-[4-(6,7-dimethoxyquinoxalin-2-yl)-2-fluoro-phenyl]-N-[2-methyl-5-(2,2,2-trifluoro-1,1-dimethyl-ethyl)pyrazol-3-yl]acetamide]
 |  | < 5 nM | < 5 nM | COc1cc2ncc(-c3ccc(CC(=O)Nc4cc(C(C)(C)C(F)(F)F)on4)c(F)c3)nc2cc1OCCN1CC[C@H](O)C1 [Example 191, 2-[2-fluoro-4-[7-[2-[(3S)-3-hydroxypyrrolidin-1-yl]ethoxy]-6-methoxy-quinoxalin-2-yl]phenyl]-N-[5-(2,2,2-trifluoro-1,1-dimethyl-ethyl)isoxazol-3-yl]acetamide]
 |  | < 5 nM | < 5 nM | CC(=O)N(C)CCOc1cc2ncc(-c3ccc(CC(=O)Nc4cc(C(C)(C)C(F)(F)F)on4)c(F)c3)nc2cc1OCCN(C)C(C)=O [Example 221, 2-[4-[6,7-bis[2-[acetyl(methyl)amino]ethoxy]quinoxalin-2-yl]-2-fluoro-phenyl]-N-[5-(2,2,2-trifluoro-1,1-dimethyl-ethyl)isoxazol-3-yl]acetamide]
 |  | < 5 nM | < 5 nM | COc1cc2ncc(-c3ccc(CC(=O)Nc4cc(C5(C(F)(F)F)CC5)on4)c(F)c3)nc2cc1OCCCNC(C)=O [Example 214, 2-[4-[7-(3-acetamidopropoxy)-6-methoxy-quinoxalin-2-yl]-2-fluoro-phenyl]-N-[5-[1-(trifluoromethyl)cyclo-propyl]isoxazol-3-yl]acetamide]
 |  | < 5 nM | < 5 nM | COc1cc2ncc(-c3ccc(CC(=O)Nc4cc(C5(C(F)(F)F)CC5)on4)c(F)c3)nc2cc1OCCN1CCOCC1 [Example 234, 2-[2-fluoro-4-[6-methoxy-7-(2-morpholino-ethoxy)quinoxalin-2-yl]phenyl]-N-[5-[1-(trifluoro-methyl)cyclopropyl]isoxazol-3-yl]acetamide]
 |  | < 5 nM | < 5 nM | COc1cc2nc(-c3ccc(CC(=O)Nc4cc(C5(C(F)(F)F)CC5)on4)c(F)c3)cnc2cc1OCCN1CCOC[C@H]1C [Example 247, 2-[2-fluoro-4-[7-methoxy-6-[2-[(3R)-3-methylmorpholin-4-yl]ethoxy]quinoxalin-2-yl]phenyl]-N-[5-[1-(trifluoromethyl)cyclo-propyl]isoxazol-3-yl]acetamide]
 |  | < 5 nM | < 5 nM | COc1cc2ncc(-c3ccc(CC(=O)Nc4cc(C5(C(F)(F)F)CC5)on4)c(F)c3)nc2cc1OC[C@@H](C)O [Example 202, 2-[2-fluoro-4-[7-[(2R)-2-hydroxypropoxy]-6-methoxy-quinoxalin-2-yl]phenyl]-N-[5-[1-(trifluoromethyl)cyclo-propyl]isoxazol-3-yl]acetamide]
 |  | < 5 nM | < 5 nM | COc1cc2nc(-c3ccc(CC(=O)Nc4cc(C(C)(C)C(F)(F)F)n[nH]4)c(F)c3)cnc2cc1OCCN1CCOCC1 [Example 235, 2-[2-fluoro-4-[7-methoxy-6-(2-morpholino-ethoxy)quinoxalin-2-yl]phenyl]-N-[3-(2,2,2-trifluoro-1,1-dimethyl-ethyl)-1H-pyrazol-5-yl]acetamide]
 |  | < 5 nM | < 5 nM | COc1cc2ncc(-c3ccc(CC(=O)Nc4cc(C5(C(F)(F)F)CC5)on4)c(F)c3)cc2cc1OCCN1CCOCC1 [Example 190, 2-[2-fluoro-4-[7-methoxy-6-(2-morpholinoethoxy)-3-quinolyl]phenyl]-N-[5-[1-(trifluoromethyl)cyclo-propyl]isoxazol-3-yl]acetamide]
 |  | < 5 nM | < 5 nM | COc1cc2nc(-c3ccc(CC(=O)Nc4cc(C5(C(F)(F)F)CC5)on4)c(F)c3)cnc2cc1OCCN1CC2CC1CO2 (centres unmarked) [Example 224, 2-[2-fluoro-4-[7-methoxy-6-[2-(2-oxa-5-azabicyclo[2.2.1]heptan-5-yl)ethoxy]quinoxalin-2-yl]phenyl]-N-[5-[1-(trifluoromethyl)cyclo-propyl]isoxazol-3-yl]acetamide]
< 5 nM | < 5 nM |  |  | O=C(Cc1ccc(-c2cnc3cccnc3c2)cc1)Nc1cc(C2(C(F)(F)F)CC2)on1 [Example 11, 2-(4-(1,5-naphthyridin-3-yl)phenyl)-N-(5-(1-(trifluoromethyl)cyclopropyl)isoxazol-3-yl)acetamide]
 |  | < 5 nM | < 5 nM | COc1cc2ncc(-c3ccc(CC(=O)Nc4cc(C(C)(C)C(F)(F)F)on4)c(F)c3)cc2cc1OCCN1CCC(O)CC1 [Example 206, 2-[2-fluoro-4-[6-[2-(4-hydroxy-1-piperidyl)ethoxy]-7-methoxy-3-quinolyl]phenyl]-N-[5-(2,2,2-trifluoro-1,1-dimethyl-ethyl)isoxazol-3-yl]acetamide]
 |  | < 5 nM | < 5 nM | COc1cc2ncc(-c3ccc(CC(=O)Nc4cc(C5(C(F)(F)F)CC5)on4)c(F)c3)nc2cc1OCC(O)CO (centres unmarked) [Example 236, 2-[4-[7-(2,3-dihydroxypropoxy)-6-methoxy-quinoxalin-2-yl]-2-fluoro-phenyl]-N-[5-[1-(trifluoromethyl)cyclo-propyl]isoxazol-3-yl]acetamide]
 |  | < 5 nM | < 5 nM | COc1cc2ncc(-c3cc(F)c(CC(=O)Nc4cc(C(C)(C)C(F)(F)F)on4)c(F)c3)nc2cc1OC [Example 225, 2-[4-(6,7-dimethoxyquinoxalin-2-yl)-2,6-difluoro-phenyl]-N-[5-(2,2,2-trifluoro-1,1-dimethyl-ethyl)isoxazol-3-yl]acetamide]
 |  | < 5 nM | < 5 nM | COc1cc2nc(-c3ccc(CC(=O)Nc4cc(C5(C(F)(F)F)CC5)on4)c(F)c3)cnc2cc1OCCN1CCO[C@H](C)C1 [Example 242, 2-[2-fluoro-4-[7-methoxy-6-[2-[(2R)-2-methylmorpholin-4-yl]ethoxy]quinoxalin-2-yl]phenyl]-N-[5-[1-(trifluoromethyl)cyclo-propyl]isoxazol-3-yl]acetamide]
 |  | < 5 nM | < 5 nM | COc1cc2nc(-c3ccc(CC(=O)Nc4cc(C(C)(C)C(F)(F)F)on4)c(F)c3)cnc2cc1OCCn1cnnc1 [Example 211, 2-[2-fluoro-4-[7-methoxy-6-[2-(1,2,4-triazol-4-yl)ethoxy]quinoxalin-2-yl]phenyl]-N-[5-(2,2,2-trifluoro-1,1-dimethyl-ethyl)isoxazol-3-yl]acetamide]
 |  | < 5 nM | < 5 nM | COc1cc2ncc(-c3cnc(CC(=O)Nc4cc(C(C)(C)C(F)(F)F)on4)c(F)c3)nc2cc1OC [Example 229, 2-[5-(6,7-dimethoxyquinoxalin-2-yl)-3-fluoro-2-pyridyl]-N-[5-(2,2,2-trifluoro-1,1-dimethyl-ethyl)isoxazol-3-yl]acetamide]
 |  | < 5 nM | < 5 nM | COc1cc2ncc(-c3ccc(CC(=O)Nc4cc(C5(C(F)(F)F)CC5)on4)c(F)c3)nc2cc1OCCCN1CCOCC1 [Example 213, 2-[2-fluoro-4-[6-methoxy-7-(3-morpholino-propoxy)quinoxalin-2-yl]phenyl]-N-[5-[1-(trifluoro-methyl)cyclopropyl]isoxazol-3-yl]acetamide]
 |  | < 5 nM | < 5 nM | CC(=O)NCCOc1cc2ncc(-c3ccc(CC(=O)Nc4cc(C(C)(C)C(F)(F)F)on4)c(F)c3)nc2cc1OCCNC(C)=O [Example 220, 2-[4-[6,7-bis(2-acetamidoethoxy)quinoxalin-2-yl]-2-fluoro-phenyl]-N-[5-(2,2,2-trifluoro-1,1-dimethyl-ethyl)isoxazol-3-yl]acetamide]
< 5 nM | < 5 nM |  |  | CCN1CCN(CCOc2cc3ncc(-c4ccc(CC(=O)Nc5cc(C6(C(F)(F)F)CC6)on5)c(F)c4)nc3cc2OC)CC1 [Example 105, 2-[4-[6-[2-(4-ethylpiperazin-1-yl)ethoxy]-7-methoxy-quinoxalin-2-yl]-2-fluoro-phenyl]-N-[5-[1-(trifluoromethyl)cyclo-propyl]isoxazol-3-yl]acetamide]
 |  | < 5 nM | < 5 nM | COc1cc2nc(-c3ccc(CC(=O)Nc4cc(C5(C(F)(F)F)CC5)on4)c(F)c3)cnc2cc1C(C)(O)CO (centres unmarked) [Example 233, 2-[4-[6-(1,2-dihydroxy-1-methyl-ethyl)-7-methoxy-quinoxalin-2-yl]-2-fluoro-phenyl]-N-[5-[1-(trifluoro-methyl)cyclopropyl]isoxazol-3-yl]acetamide]
 |  | < 5 nM | < 5 nM | COc1cc2ncc(-c3ccc(CC(=O)Nc4cc(C5(C(F)(F)F)CC5)on4)c(F)c3)cc2cc1OCCNC(C)=O [Example 193, 2-[4-[6-(2-acetamidoethoxy)-7-methoxy-3-quinolyl]-2-fluoro-phenyl]-N-[5-[1-(trifluoromethyl)cyclo-propyl]isoxazol-3-yl]acetamide]
 |  | < 5 nM | < 5 nM | COc1cc2cc(-c3ccc(CC(=O)Nc4cc(C(C)(C)C(F)(F)F)on4)c(F)c3)cnc2cc1OCCN1CCOCC1 [Example 197, 2-[2-fluoro-4-[6-methoxy-7-(2-morpholinoethoxy)-3-quinolyl]phenyl]-N-[5-(2,2,2-trifluoro-1,1-dimethyl-ethyl)isoxazol-3-yl]acetamide]
 |  | < 5 nM | < 5 nM | COc1cc2ncc(-c3ccc(CC(=O)Nc4cc(C(C)(C)C(F)(F)F)on4)c(F)c3)nc2cc1OCCN(C)C(C)=O [Example 198, 2-[4-[7-[2-[acetyl(methyl)amino]ethoxy]-6-methoxy-quinoxalin-2-yl]-2-fluoro-phenyl]-N-[5-(2,2,2-trifluoro-1,1-dimethyl-ethyl)isoxazol-3-yl]acetamide]

SMILES | Kd (FLT3 kinase; competition binding assay) | Kd (KIT kinase; competition binding assay) | Kd (FLT3 kinase; competition binding) | Kd (KIT kinase; competition binding)
COc1cc2nc(-c3ccc(CC(=O)Nc4cc(C5(C(F)(F)F)CC5)on4)c(F)c3)cnc2cc1OCCN1C2CCC1COC2 [Example 245, 2-[2-fluoro-4-[7-methoxy-6-[2-(3-oxa-8-azabicyclo[3.2.1]octan-8-yl)ethoxy]quinoxalin-2-yl]phenyl]-N-[5-[1-(trifluoromethyl)cyclo-propyl]isoxazol-3-yl]acetamide] |  |  | < 5 nM | < 5 nM
